Tests used:
BRAPP = assay: Postemergence foliar-applied greenhouse weed control, direct-seeded rice system; assay type: in vivo
From the text: (§1) Seeds or nutlets of the desired test plant species were planted in a soil matrix prepared by mixing a loam or sandy loam soil (e.g., 28.6 percent silt, 18.8 percent clay, and 52.6 percent sand, with a pH of about 5.8 and an organic matter content of about 1.8 percent) and calcareous grit in an 80 to 20 ratio. The soil matrix was contained in plastic pots with a volume of 1 quart and a surface area of 83.6 square centimeters (cm^2). When required to ensure good germination and healthy plants, a fungicide treatment and/or other chemical or physical treatment was applied. The plants were grown for 8-22 days in a greenhouse with an approximate 14 h photoperiod which was maintained at about 29° C. during the day and 26° C. during the night. Nutrients (Peters Excel® 15-5-15 5-Ca 2-Mg and iron chelate) were applied in the irrigation solution as needed and water was added on a regular basis. Supplemental lighting was provided with overhead metal halide 1000-Watt lamps as necessary. The plants were employed for testing when they reached the first through fourth true leaf stage.
(§2) Treatments consisted of the acid or esters of 4-amino-3-chloro-5-fluoro-6-(4-chloro-2-fluoro-3-methoxy-phenyl)pyridine-2-carboxylic acid (Compound A), each formulated as an SC (suspension concentrate), and various herbicidal components alone and in combination. Forms of compound A were applied on an acid equivalent basis.
(§3) Other herbicidal components were applied on an active ingredient basis and included diamuron formulated as an EC (emulsifiable concentrate) and oxaziclomefone (technical grade material).
(§4) Treatment requirements were calculated based upon the rates being tested, the concentration of active ingredient or acid equivalent in the formulation, and a 12 mL application volume at a rate of 187 L/ha.
(§5) For treatments comprised of formulated compounds, measured amounts of compounds were placed individually in 25 mL glass vials and diluted in a volume of 1.25% (v/v) Agri-Dex® crop oil concentrated to obtain 12× stock solutions. […] Application solutions were prepared by adding an appropriate amount of each stock solution (e.g., 1 mL) and diluted to the appropriate final concentrations with the addition of 10 mL of an aqueous mixture of 1.25% (v/v) crop oil concentrate so that the final spray solutions contained 1.25+/−0.05% (v/v) crop oil concentrate.
(§6) For treatments comprised of technical compounds, weighed amounts can be placed individually in 25 mL glass vials and dissolved in a volume of 97:3 v/v acetone/DMSO to obtain 12× stock solutions. […] Application solutions can be prepared by adding an appropriate amount of each stock solution (e.g., 1 mL) and diluted to the appropriate final concentrations with the addition of 10 mL of an aqueous mixture of 1.5% (v/v) crop oil concentrate so that the final spray solutions contain 1.25% (v/v) crop oil concentrate. When technical materials are used, the concentrated stock solutions can be added to the spray solutions so that the final acetone and DMSO concentrations of the application solutions are 16.2% and 0.5%, respectively.
(§7) For treatments comprised of formulated and technical compounds, weighed amounts of the technical materials were placed individually in 25 mL glass vials and dissolved in a volume of 97:3 v/v acetone/DMSO to obtain 12× stock solutions, and measured amounts of the formulated compounds were placed individually in 25 mL glass vials and diluted in a volume of 1.5% (v/v) crop oil concentrate or water to obtain 12× stock solutions. […] Application solutions were prepared by adding an appropriate amount of each stock solution (e.g., 1 mL) and diluted to the appropriate final concentrations with the addition of an appropriate amount of an aqueous mixture of 1.5% (v/v) crop oil concentrate so that the final spray solutions contained 1.25% (v/v) crop oil concentrate. […]

ECHCG = assay: as above; assay type: in vivo, Echinochloa crusgalli (L.) Beauv.
From the text: as §1, §2, §3, §4, §5, §6, §7

[1] = Compound A Benzyl Ester 4.38 gae/ha alone
[2] = Compound A Benzyl Ester 8.75 gae/ha alone

## COc1c(Cl)ccc(-c2nc(C(=O)OCc3ccccc3)c(Cl)c(N)c2F)c1F [Compound A Benzyl Ester]
BRAPP; [1]
  Visual Weed Control (%) - 20 DAA BRAPP Obs: 50%
BRAPP; [2]
  Visual Weed Control (%) - 20 DAA BRAPP Obs: 70%
ECHCG; [1]
  Visual Weed Control (%) - 20 DAA ECHCG Obs: 40%
ECHCG; [2]
  Visual Weed Control (%) - 20 DAA ECHCG Obs: 90%
